In one assay the target is T1, FAAH (Homo sapiens, UniProt O00519).
T1 construct: Human bladder epithelial carcinoma-derived cell line, 5637 cells (HTB-9; host or cells: 5637 human bladder epithelial carcinoma cells
T1 sequence (O00519 1-579): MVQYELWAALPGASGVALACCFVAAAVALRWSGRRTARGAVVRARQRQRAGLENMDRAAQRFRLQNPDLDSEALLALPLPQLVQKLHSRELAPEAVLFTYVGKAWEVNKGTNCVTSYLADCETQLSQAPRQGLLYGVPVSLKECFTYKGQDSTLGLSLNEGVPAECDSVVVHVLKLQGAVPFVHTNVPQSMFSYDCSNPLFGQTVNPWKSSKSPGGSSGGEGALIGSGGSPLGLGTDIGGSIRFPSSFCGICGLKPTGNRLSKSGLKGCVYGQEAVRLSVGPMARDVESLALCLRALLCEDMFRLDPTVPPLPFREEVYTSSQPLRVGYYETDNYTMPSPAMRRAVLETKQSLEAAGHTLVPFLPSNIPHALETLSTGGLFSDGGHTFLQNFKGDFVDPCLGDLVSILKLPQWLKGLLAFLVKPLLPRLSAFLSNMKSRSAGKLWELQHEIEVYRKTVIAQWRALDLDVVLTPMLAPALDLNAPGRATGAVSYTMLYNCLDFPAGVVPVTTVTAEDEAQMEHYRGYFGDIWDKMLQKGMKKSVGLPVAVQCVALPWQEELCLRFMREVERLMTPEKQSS
As to the kind of experiment: Measurement of IC50 value of substance inhibiting FAAH activity using human bladder epithelial carcinoma-derived cell line 5637. Format: cell-based. On the procedure:
Screening of Substance Inhibiting FAAH Activity by Using Human Bladder Epithelial Carcinoma-Derived Cell Line
(1) Screening of Substance Inhibiting FAAH Activity
Human bladder epithelial carcinoma-derived cell line, 5637 cells (HTB-9; ATCC) were seeded in a 48-well cell culture plate in an amount of 1×10^5 cells/well by using RPMI 1640 medium (Invitrogen) containing 10% fetal bovine serum (HyClone), followed by incubation at 37° C. for 12 hours or longer, and then the cells in each well were washed with 400 μl of a buffer (Hank's Balanced Salt Solution, 20 mM Hepes-NaOH (pH 7.4)). A test substance dissolved in DMSO was added to a substrate solution (the above buffer containing 3 μCi/ml radiolabeled anandamide (anandamide [ethanolamine 1-^3H]) and 10 μM anandamide) so as to have a concentration from 0.003 nM to 30 nM, and as a control, DMSO was added alone. 100 μl/well of the substrate solution was added to the cells, followed by incubation in a CO2 incubator at 37° C. for 30 minutes. […] A substance decreasing a measured value compared to the control was selected as a substance inhibiting FAAH activity. […]

The test system of assay [1] is rat model with bladder pain. As to the kind of experiment: Rat model with bladder pain (cyclophosphamide pre-treated, bladder expansion). The format is in vivo. On the procedure:
Action of Compound with Respect to Rat Model with Bladder Pain
The analgesic action of the compound against bladder pain was examined using a pathological model. Cyclophosphamide (150 mg/kg) was administered intraperitoneally, and after two days, physiological saline was injected under a non-restraint condition, at a rate of 45 ml/h via a cannula inserted transurethrally into the bladder, thereby rapidly expanding the bladder. Due to rapid expansion of the bladder, amplification of electromyogram spikes in external oblique abdominal muscle accompanying behavior relating to pain was confirmed. The injection amount at this point in time can be taken as a threshold of bladder pain, which makes it possible to evaluate drug efficacy with respect to the threshold of bladder pain. […] For the rats pre-treated with cyclophosphamide, the threshold of bladder pain before and after the administration of a test compound was measured, and the change in amount (Δ ml) was investigated. In order to obtain a value before administration, bladder expansion was performed until a stabilized threshold of bladder pain was consecutively obtained three times, and the average of the threshold of bladder pain of the final three times was taken as a measured value. […] The average of the threshold of bladder pain consecutively measured three times was taken as a value measured after administration.

In assay [2] the test system is rat model with testis pain. As to the kind of experiment: Rat model with testis pain (acetic acid into testes, writhing). The format is in vivo. On the procedure:
Action of Compound with Respect to Rat Model with Testis Pain
The analgesic action of the compound against testis pain was examined using a pathological model. If 1% acetic acid is administered at 1 ml/kg to right and left testes of a rat by using an injection needle, pain behavior (writhing) accompanied by testis pain is observed, which makes it possible to evaluate drug efficacy on the pain behavior. […] The rats were transferred to a cylindrical acryl cage having a diameter of 30 cm and a height of 50 cm, and the number of times of pain behavior shown for 5 minutes to 15 minutes after the acetic acid administration was measured.
(Writhing tests count abdominal constrictions after an irritant is injected.)

Consider 3 molecules from patent publication US20130030006A1, “AGENT FOR PREVENTING OR TREATING DISEASES ACCOMPANIED BY URINARY PAIN” (priority 2010, published 2013).

Molecules are shown by their SMILES.

For orientation: IC50 means the concentration at which inhibition is half-maximal. Read a low IC50 as inhibition by little substance. On to `NC(=O)c1cncc(OC(=O)N2CCC(CCc3cccc(C(=O)N4CCCCC4)c3)CC2)c1` [Compound I, 5-(aminocarbonyl)pyridin-3-yl 4-{2-[3-(piperidin-1-ylcarbonyl)phenyl]ethyl}piperidine-1-carboxylate], for which the IC50 at FAAH amounted to 0.16 nM.
As for `NC(=O)c1cncc(OC(=O)N2CCC(CCc3cccc(C(=O)N4CCCC4)c3)CC2)c1` [Compound J, 5-(aminocarbonyl)pyridin-3-yl 4-{2-[3-(pyrrolidin-1-ylcarbonyl)phenyl]ethyl}piperidine-1-carboxylate], in assay [1] (rat, in vivo, po), the “Threshold of bladder pain (amount of physiological saline injected), compound-administered group” value is recorded as 0.150 Δ ml. Also, the “Number of times of pain behavior, compound-administered group” value in assay [2] (rat, in vivo, po) is 9.5.
As to `O=C(Nc1ccccc1)C1CCN(C(=O)Oc2cccnc2)CC1` [Compound L, pyridin-3-yl 4-(anilinocarbonyl)piperidine-1-carboxylate], the “Threshold of bladder pain (amount of physiological saline injected), compound-administered group” value in assay [1] (male SD rats, 3 mg/5 ml/kg oral, 120 minutes before measurement, change before vs after administration) was 0.173 Δ ml. Moreover, the “Number of times of pain behavior, compound-administered group” value in assay [2] (male Wistar rats, 3 mg/5 ml/kg oral, 120 minutes before measurement, counted 5 to 15 minutes after acetic acid) is listed as 6.7.
